Data reported in US6429204B1, “Method of inhibiting cancer growth” (University of Miami, priority 1997, dated 2002).

Columns and labels:
[1] = test system: C8161 human melanoma cells; assay: In vitro invasion assay (MICS), laminin/collagen IV/gelatin matrix-coated filter; type: cell-based; conditions: 3, 20 and 50 μg/mL; for Percent Inhibition of invasive potential: 48 hr
Procedure: The in vitro invasive potentials of the control (DMSO only) and chemically-modified tetracycline treated cells were measured using a modified Boyden chamber as previously described (Membrane Invasion Culture System, MICS). An intervening barrier consisting of a polycarbonate filter containing 10 μm pores (Osmonics, Livermore, Calif.) coated with a defined matrix of human laminin/collagen IV/gelatin (Sigma, St. Louis, Mo.) was used for these studies. […] Doxycycline or individual CMTs were then added to different wells of the chamber at 3, 20 or 50 μg/mL 2 hr post-seeding and daily during the assay. After 48 hr, the cells were removed from the lower wells and the number of invasive cells was determined and compared to the original number of cells seeded into the upper wells. Where appropriate, data were corrected for proliferation during the period of the in vitro assay.

[2] = Blood levels after oral gavage of adult rats
Text: In the treatment of certain localized cancers, the degree of hydrophilicity of the non-antimicrobial tetracycline compound can be of lesser importance.

Dunning MAT LyLu cells [3] = assay: Matrigel invasion assay (Boyden chamber, MTT), MAT LyLu; type: cell-based, rat; conditions: MAT LyLu, 5 μg/mL, 48 hr
Procedure: In this method, 4×10^5 tumor cells were plated on the top chamber of the Boyden chemotaxis assay chambers (Costar Transwell plates). The bottom side of the chamber was a 12 μm-pore polycarbonate filter layered with 0.5 mm thick layer of Matrigel. The bottom well contained a chemoattractant, a serum-free culture-conditioned medium from FHS 733 cells, a line of human fetal lung fibroblasts (ATCC No. HTB-157). Cancer cells (4×10^5) were plated in the top wells of the plates. Doxycycline or CMTs were diluted in a serum-free medium to 5 μg/mL, and were added to both top and bottom chambers. […] After 48 hr incubation, MTT was added to both the top and bottom wells (0.5 mg/mL), and incubation was continued for 4 hr. Wells were then emptied, and the cells from the undersides of the filter were pooled with those in the bottom wells with a filter tip. The reduced MTT (formazan) from top and bottom wells was solubilized with DMSO overnight, and absorbance (O.D.) at 515 nm was measured. The ratio of the O.D. from the bottom wells to that of the total (i.e., O.D. of top plus bottom wells) was taken as the invasive potential. […] The MTT assay procedure also normalizes the coincident inhibition due to the cytotoxic effects of the agents under investigation. Results presented are from three independent experiments.

[4] = test system: DU-145 and TSU-PR1 prostate cancer cell lines; assay: Prostate cancer cell viability/proliferation (trypan blue, MTT); type: cell-based, human; conditions: exposure time not stated (24 hr or 48 hr)
Text: To determine the cytotoxicity of CMTs on prostate tumor cell lines, TSU-PR1 cells (and cells of other tumor cell lines) were exposed to various CMTs or to doxycycline for 24 hr or 48 hr in a complete medium. Cell viability (percent of live cells) was estimated by counting the cells following trypan blue staining. Cellular viability was also estimated by the tetrazolium dye reduction assay (MTT assay) (Lokeshwar et al. 1995b). Due to the aggressive proliferative capacity of cancer cells, it is assumed that viable cells are actively proliferating. Therefore, the measurement of viability was used as an estimate of proliferation. Results are expressed as Mean±SEM from three separate experiments.

Gelatinase A = molecular target: T1, Gelatinase A (Homo sapiens, UniProt P08253); assay: Zymography with densitometry of C8161 conditioned medium, gelatinase A; type: cell-based; conditions: 50 μg/mL, 24 hr
T1 construct: endogenous in cells; host or cells: C8161
T1 sequence (P08253 110-660): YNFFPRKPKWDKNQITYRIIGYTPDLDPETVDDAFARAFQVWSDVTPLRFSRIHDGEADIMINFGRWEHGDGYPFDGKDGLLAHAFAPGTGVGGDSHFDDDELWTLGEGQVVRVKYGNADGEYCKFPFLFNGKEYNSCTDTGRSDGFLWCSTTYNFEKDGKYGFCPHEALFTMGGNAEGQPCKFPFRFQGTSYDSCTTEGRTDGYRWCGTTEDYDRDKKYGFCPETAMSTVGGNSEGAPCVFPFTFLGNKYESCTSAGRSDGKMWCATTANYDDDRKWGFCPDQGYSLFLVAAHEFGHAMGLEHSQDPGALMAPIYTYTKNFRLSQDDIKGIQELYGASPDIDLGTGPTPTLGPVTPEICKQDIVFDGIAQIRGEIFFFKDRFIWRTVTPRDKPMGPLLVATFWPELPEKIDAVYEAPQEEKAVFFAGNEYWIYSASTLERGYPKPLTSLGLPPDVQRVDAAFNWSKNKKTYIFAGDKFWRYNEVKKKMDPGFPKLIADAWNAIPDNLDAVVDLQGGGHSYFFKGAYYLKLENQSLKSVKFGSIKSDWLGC
Procedure: (§1) Six hundred thousand (6×10^5) C8161 cells were seeded per well in a 12-well dish coated with a laminin/collagen IV/gelatin matrix in DMEM plus Mito+ and 0.1% gentamicin sulfate. After approximately 1 hr incubation to allow the cells to attach, 50 μg/mL of either doxycycline or one of the other CMTs was added per well and the dish then placed in a 37° C. humidified 5% CO2 incubator. After 24 hr, the supernatants were removed and centrifuged to remove any cells or debris. One volume of Laemmli sample buffer minus reductant was added to two volumes of the medium, and this sample electrophoresed without prior heating or boiling on a 10% SDS-PAGE containing 0.1% gelatin (samples normalized based on the same number of cells per volume of medium per time of incubation). After electrophoresis, the gels were washed with gentle shaking at room temperature for 30 min in 50 mM Tris-HCl (pH 7.5) plus 2.5% TRITON® X100 plus 50 μg/mL of the corresponding CMT used in the original treatment. The gel was then placed in incubation buffer (50 mM Tris-Cl/10 mM CaCl2/150 mM NaCl/0.05% NaN3) also containing 50 μg/mL of the corresponding CMT, and incubated at 37° C. for 20-24 hr. The gels were stained with Coomassie BBR-250, then destained with 10% methanol/10% acetic acid in water until the wash remained clear. A photographic negative of the gel was digitized using a video camera and Snappy Video Snapshot system (Play Inc., Rancho Cordova, Calif.). An integrated density was determined for each of the cleared zones of proteolysis using the software ImagePC8α (freely available from the National Institutes of Health), and the corresponding changes in gelatinolytic activities reported compared to the control samples normalized to a value of 1.0.

[5] = Solubility in aqueous systems; type: physicochemical
E-10 Cells = assay: MTS cytotoxicity assay, E-10; conditions: two days
Gelatinase B = molecular target: T2, Gelatinase B (Homo sapiens, UniProt P14780); assay: Zymography with densitometry of C8161 conditioned medium, gelatinase B; type: cell-based; conditions: 50 μg/mL, 24 hr
T2 construct: endogenous in cells; host or cells: C8161
Procedure: as §1

Dunning MAT LyLu cells [6] = assay: Cytotoxic effect on MAT LyLu cells (trypan blue); type: cell-based, rat; conditions: 24 hr or 48 hr exposure
Procedure: Cell viability was estimated by trypan blue staining following exposure to the drugs. The results of these studies are summarized in FIG. 4A (24 hours) and FIG. 4B (48 hr). Data are presented as Mean±SEM from three separate experiments.

COLO 205 Cells = assay: MTS cytotoxicity assay, COLO 205; conditions: two days
Procedure: A panel of chemically modified tetracycline compounds and doxycycline were tested for cytotoxicity against two carcinomas: COLO 205 (a human colon carcinoma-derived cell line) and the E-10 clone of MDA-MB-231 (a human breast carcinoma-derived cell line). Cytoxicity was measured using a conventional assay for viability with a tetrazolium salt (MTS). Cells were grown in media containing the CMTs at concentrations ranging from 5 μM to 100 μM for two days. The cells were then incubated with the MTS for several hours before removal of the supernatant medium for determination of formazan, which is generated only by the viable cells. Results are expressed as percent cytotoxicity, which is simply the percent decline in measured formazan concentration in the sampled medium.

C8161 cells = assay: C8161 cell proliferation (doubling time); type: cell-based, human; conditions: 50 μg/mL
Procedure: Cell Culture and Maintenance: C8161 cells, a human melanoma cell line, were maintained in Dulbecco's modified Eagle's medium (DMEM; […] These cells were routinely screened for Mycoplasma contamination using the GenProbe Rapid Detection System (Fisher Scientific; Chicago, Ill.). Chemically Modified Tetracyclines: Fresh stock solutions of the chemically modified tetracycline compounds (2 mg/mL) were prepared for each experiment by hydrating in 2% dimethyl sulfoxide (DMSO)/water pH 10, then adjusting to pH 7.4 using 1.0 M HCl. […] Sigma Chem. Co.; control) or 50 μg/mL of doxycycline or the other CMTs (three wells on each plate per compound). […] The doubling time for C8161 cells in the presence of each compound was then determined and compared to the DMSO treated cells (control).

T2 sequence (P14780 94-707): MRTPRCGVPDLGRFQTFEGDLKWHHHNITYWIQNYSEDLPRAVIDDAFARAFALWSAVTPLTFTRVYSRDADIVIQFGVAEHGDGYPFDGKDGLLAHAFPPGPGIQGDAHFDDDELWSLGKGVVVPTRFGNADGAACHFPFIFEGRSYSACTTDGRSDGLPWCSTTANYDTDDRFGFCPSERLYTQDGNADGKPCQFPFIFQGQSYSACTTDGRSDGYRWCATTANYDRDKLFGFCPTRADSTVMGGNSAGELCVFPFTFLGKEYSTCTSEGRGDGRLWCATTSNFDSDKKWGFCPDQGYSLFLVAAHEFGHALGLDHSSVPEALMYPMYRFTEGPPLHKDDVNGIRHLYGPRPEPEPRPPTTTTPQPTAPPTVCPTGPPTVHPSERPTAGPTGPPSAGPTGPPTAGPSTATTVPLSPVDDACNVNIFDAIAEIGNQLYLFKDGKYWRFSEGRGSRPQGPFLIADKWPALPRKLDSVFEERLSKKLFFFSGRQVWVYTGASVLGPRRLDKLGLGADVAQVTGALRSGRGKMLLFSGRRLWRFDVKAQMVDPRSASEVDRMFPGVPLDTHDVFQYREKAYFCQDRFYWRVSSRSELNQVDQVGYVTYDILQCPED

In the case of `CN(C)C1C(=O)C(C#N)=C(O)C2(O)C(=O)C3=C(O)c4c(O)cccc4C(C)(O)C3CC12` (stereo not shown) [CMT-2, tetracyclinonitrile], the “Type of Inhibition” value [1] is reported as “non-dose”, the “Percent Inhibition of invasive potential” value [1] is reported as “˜10%” and the blood levels ([2]; rat, in vivo, po) is reported as “no detectable blood levels”. The “inhibition of invasive/metastatic potential (Matrigel invasion)” value (Dunning MAT LyLu cells [3]) was “equally inhibited”, the “50% inhibition dose (IC50), cell proliferation” value [4] was 5.7 µg/mL and the “Gelatinase A, integrated density normalized to control 1.00” value (Gelatinase A) was 0.89. For the same compound, the “solubility in aqueous systems” value [5] was “low solubility in aqueous systems”, the percent cytotoxicity (E-10 Cells; 5 μM) was 1.5% and the percent cytotoxicity (E-10 Cells; 10 μM) was 3.8%. For the same compound, the percent cytotoxicity (E-10 Cells; 20 μM) was 0.8%, the percent cytotoxicity (E-10 Cells; 50 μM) was 0% and the percent cytotoxicity (E-10 Cells; 100 μM) was 2.3%. For the same compound, the “Gelatinase B, integrated density normalized to control 1.00” value (Gelatinase B) was 1.51, the “inhibition of cell proliferation (rank among tested drugs)” value (Dunning MAT LyLu cells [6]) was “most effective inhibitors of cell proliferation” and the percent cytotoxicity (COLO 205 Cells; 5 μM) was 2.7%. The percent cytotoxicity (COLO 205 Cells; 10 μM) was 4.5%, the percent cytotoxicity (COLO 205 Cells; 20 μM) was 0% and the percent cytotoxicity (COLO 205 Cells; 50 μM) was 7%. It also gave a percent cytotoxicity (COLO 205 Cells; 100 μM) of 16.3%.
In the case of `CC1(O)c2cccc(O)c2C(=O)C2=C(O)C3(O)C(=O)C(C(N)=O)=C(O)C(O)C3CC21` (stereo not shown) [CMT-6, 4-hydroxy-4-de(dimethylamino)tetracycline], the “Type of Inhibition” value [1] is reported as “dose dependent”, the “Percent Inhibition of invasive potential” value [1] is reported as 8-50% and the blood levels ([2]; adult rats, oral gavage) is reported as “no detectable blood levels”. For the same compound, the “50% inhibition dose (IC50), cell proliferation” value [4] was 120 µg/mL, the “Gelatinase A, integrated density normalized to control 1.00” value (Gelatinase A) was 0.07 and the percent cytotoxicity (E-10 Cells; 5 μM) was 0%. For the same compound, the percent cytotoxicity (E-10 Cells; 10 μM) was 6%, the percent cytotoxicity (E-10 Cells; 20 μM) was 3% and the percent cytotoxicity (E-10 Cells; 50 μM) was 7.6%. The percent cytotoxicity (E-10 Cells; 100 μM) was 16.7%, the “Gelatinase B, integrated density normalized to control 1.00” value (Gelatinase B) was 0.51 and the “Doubling Time” value (C8161 cells; on plastic, DMSO 22 hr) was 24 h. The “increase of doubling time” value (C8161 cells; versus DMSO) was “approximately 9%”, the percent cytotoxicity (COLO 205 Cells; 5 μM) was 1.7% and the percent cytotoxicity (COLO 205 Cells; 10 μM) was 0%. The percent cytotoxicity (COLO 205 Cells; 20 μM) was 0%, the percent cytotoxicity (COLO 205 Cells; 50 μM) was 0% and the percent cytotoxicity (COLO 205 Cells; 100 μM) was 22.2%.
